Experimental data from patent publication US7432255B2, “1H-indol-5-yl-piperazin-1-yl-methanone derivatives” (Hoffmann-La Roche Inc., priority 2006, dated 2008).

These compounds were tested against T1, human H3R (Homo sapiens, UniProt Q9Y5N1) (assay: Binding assay with 3H-(R)α-methylhistamine (competition binding)). Conditions: competition binding vs 3H(R)α-methylhistamine (1 nM), membrane of the human H3R-CHO cell line; Ki calculated from IC50 by Cheng-Prusoff equation.
T1 construct: expressed in transfected cells; host or cells: CHO cells
T1 sequence (Q9Y5N1 whole entry): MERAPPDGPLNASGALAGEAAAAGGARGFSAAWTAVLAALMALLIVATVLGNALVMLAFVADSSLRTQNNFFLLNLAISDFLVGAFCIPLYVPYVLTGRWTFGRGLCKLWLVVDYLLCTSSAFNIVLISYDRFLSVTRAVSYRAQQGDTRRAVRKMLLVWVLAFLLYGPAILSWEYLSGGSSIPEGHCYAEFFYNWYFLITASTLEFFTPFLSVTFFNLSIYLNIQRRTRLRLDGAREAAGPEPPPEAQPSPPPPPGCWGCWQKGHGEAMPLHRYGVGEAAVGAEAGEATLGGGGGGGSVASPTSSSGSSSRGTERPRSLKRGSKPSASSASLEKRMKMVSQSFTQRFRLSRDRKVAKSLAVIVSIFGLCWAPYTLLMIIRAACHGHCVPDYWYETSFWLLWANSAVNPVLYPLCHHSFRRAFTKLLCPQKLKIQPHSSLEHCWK
Description: Binding Assay with ^3H—(R)α-methylhistamine
Saturation binding experiments were performed using HR3-CHO membranes prepared as described in Takahashi, K, Tokita, S., Kotani, H. (2003) J. Pharmacol. Exp. Therapeutics 307, 213-218.
An appropriate amount of membrane (60 to 80 μg protein/well) was incubated with increasing concentrations of ^3H(R)α-Methylhistamine di-hydrochloride (0.10 to 10 nM). Non specific binding was determined using a 200 fold excess of cold (R)α-methyl-histamine dihydrobromide (500 nM final concentration). The incubation was carried out at room temperature (in deep-well plates shaking for three hours). The final volume in each well was 250 μl. The incubation was followed by rapid filtration on GF/B filters (pre-soaked with 100 μl of 0.5% PEI in Tris 50 mM shaking at 200 rpm for two hours). The filtration was made using a cell-harvester and the filter plates were then washed five times with ice cold washing buffer containing 0.5 M NaCl. After harvesting, the plates were dried at 55° C. for 60 min, then scintillation fluid (Microscint 40, 40 microl in each well) was added and the amount of radioactivity on the filter was determined in Packard top-counter after shaking the plates for two hours at 200 rpm at room temperature.
Binding Buffer: 50 mM Tris-HCl pH 7.4 and 5 mM MgCl2×6H2O pH 7.4. Washing Buffer: 50 mM Tris-HCl pH 7.4 and 5 mM MgCl2×6H2O and 0.5 M NaCl pH 7.4.
Indirect measurement of affinity of H3R inverse agonists: twelve increasing concentrations (ranging from 10 μM to 0.3 nM) of the selected compounds were always tested in competition binding experiments using membrane of the human H3R—CHO cell line. […]
All compounds were tested at a single concentration in duplicate. […] Ki's were calculated from IC50 based on Cheng-Prusoff equation (Cheng, Y, Prusoff, W H (1973) Biochem Pharmacol 22, 3099-3108): Ki=IC50/[1+D/Kd] wherein D is the concentration of the radioligand and Kd is the binding constant for the radioligand binding to the receptor under the conditions used in the competition experiment.

| Ki [nM] | Structure (SMILES) |
| --- | --- |
| 5.9 | CCN1CCC(n2ccc3cc(C(=O)N4CCN(C5CCCC5)CC4)ccc32)C1 (stereo not drawn) [Example 6, (4-cyclopentyl-piperazin-1-yl)-[1-(1-ethyl-pyrrolidin-3-yl)-1H-indol-5-yl]-methanone] |
| 12.1 | O=C(c1ccc2c(ccn2CC2CCCN(Cc3ccccc3)C2)c1)N1CCN(C2CCCC2)CC1 (stereo not drawn) [Example 11, [1-(1-benzyl-piperidin-3-ylmethyl)-1H-indol-5-yl]-(4-cyclopentyl-piperazin-1-yl)-methanone] |
| 15.4 | CC(C)N1CCN(C(=O)c2ccc3c(ccn3CCCN3CCCCC3C)c2)CC1 (stereo not drawn) [Example 59, (4-isopropyl-piperazin-1-yl)-{1-[3-(2-methyl-piperidin-1-yl)-propyl]-1H-indol-5-yl}-methanone] |
